Measurements taken from patent US12474342B2, “Methods for treating cancer and the use of biomarkers as a predictor of clinical sensitivity to therapies” (CELGENE CORPORATION, priority 2016, dated 2025).

Experiments:
[1] = target: T1, GSPT1 (Homo sapiens, UniProt P15170+Q96SW2); assay: GSPT1 protein reduction, western analysis, normal PBMCs; details: PBMC, 1 nM to 1000 nM, 20 hours
Description: PBMC were treated with 1 nM, 10 nM, 100 nM, or 1000 nM of Compound D or Compound E for 20 hours.

[2] = test system: OCI-AML3 cells; assay: Anti-proliferation CTG assay, OCI-AML3; assay type: cell-based, human; details: AML3 parental or control shRNA cells, 0.0001 μM to 1 μM, two days
Description: (§1) A plethora of AML cell lines were treated with serial dilutions of Compound D. IC50 value of the anti-proliferation effect of Compound D (as determined in 72-hour CTG assays) in each cell line is summarized in Table 1.
The effect of depletion of GSPT1 on the anti-proliferative effect of compound Compound D and Compound E was also determined in human acute myelogenous leukemia cell lines AML and KG1. Cells were infected with lentiviral vectors expressing control shRNA, shGSPT1-1 or shGSPT1-3 for 7 days and then treated with DMSO, Compound D or Compound E in a titration from 0.0001 μM to 1 μM. Two days after treatment, cell proliferation was measured by CellTiter-Glo cell viability. […] Both shGSPT1-1 and shGSPT1-3 reduced the expression of GSPT1, eRF1, and slightly of CRBN.

[3] = test system: MOLM-13 cells; assay: Anti-proliferation CTG assay, MOLM-13; assay type: cell-based, human; details: 48 hours
Description: as §1
(§2) The effect of overexpression of GSPT1 on the anti-proliferative effect of Compound D and Compound E was determined in human histiocytic lymphoma cell line U937 and human leukemia cell line MOLM13. Treatment compounds (e.g., Compound D or Compound E) were titrated from 0.001 μM to 10 μM. Cell proliferation was measured by CellTiter-Glo cell viability assay at 48 hours after treatment. […] However, when exogenous GSPT1 was overproduced via the EF1α promoter, as shown in FIGS. 5A-5D, the anti-proliferative effect of Compound D and Compound E reduced.

[4] = target: T1, GSPT1; assay: GSPT1 protein reduction, western analysis, KG-1; assay type: cell-based; parameters: reduction in GSPT1 protein level was evaluated in human normal PBMCs; endogenous in cells; host or cells: primary PBMCs from normal donors (ID 4328, 4379) and AML patients (ID 11SH, 09P6); details: KG1, 200 nM, 8 or 12 hours
Description: (§3) Cells were treated with DMSO alone, 200 nM Compound D, or 200 nM Compound E. After 8 or 12 hours, the expression levels of various cellular components along UPR or apoptosis pathways were measured. […] Reduction of BIP indicates UPR.
(§4) To further investigate the timeline of cellular events upon Compound D treatment, KG1 cells were treated with DMSO alone or 200 nM Compound D. At 2, 4, 6, 8, 10, or 12 hours, the expression levels of various cellular components along ATF4 or apoptosis pathways were measured.
In two sensitive AML cell lines, KG-1 and HL-60, both a concentration-dependent decrease in GSPT1 protein and an increase in RNA expression of ATF3, CHOP, and SRSF3 and SRSF6 NMD transcripts at the 8-hour time point were compared to caspase 3/7 activation (apoptosis) at the 24-hour (FIG. 30A [KG-1]; FIG. 30C [HL-60]) and 48-hour (FIG. 30B [KG-1]; FIG. 30D [HL-60]) time points.
The reduction in the level of GSPT1 protein was concentration-dependent over the range of 3 to 1000 nM in eight of the nine AML cell lines and over the range of 300 to 1000 nM in one relatively insensitive AML cell line. The time course of the reduction in GSPT1 by Compound D also was studied for up to 48 hours. The progressive degradation of GSPT1 over the course of 1 to 20 hours was evident in the presence of all concentrations of Compound D studied from 3 to 300 nM in HNT-34, HL-60, and ML-2 cells, with little GSPT1 remaining by 20 hours at 100 or 300 nM Compound D in HNT-34 or HL-60 cells (FIG. 34 and FIG. 35C). Time-dependent reduction in GSPT1 was also observed in KG-1 and OCI-AML2 cells at 3 to 1000 nM Compound D, with little GSPT1 remaining in KG-1 cells at 100 to 300 nM at 24 hours or in OCI-AML2 cells at 300 and 1000 nM at 24 hours (FIG. 35D). Loss of GSPT1 occurred more slowly in Kasumi-1, AML-193, and F36-P cells.
Compound D-mediated GSPT1 reduction at 8 hours was compared to induction of caspase 3/7 activation (apoptosis) at 12, 24, and 48 hour time points in these nine AML cell lines. […] A positive association (r^2=0.50; R=0.71; p value=4.86E-002) was observed between the level of GSPT1 reduction and apoptosis induction in the AML cell panel (FIG. 36), with >90% GSPT1 reduction correlating with induction of apoptosis.

[5] = test system: U-937 cells; assay: Anti-proliferation CTG assay, U-937; assay type: cell-based, human; details: 48 hours
Description: as §1, §2

[6] = test system: KG-1 cells; assay: Anti-proliferation CTG assay, KG-1; assay type: cell-based, human; details: KG1 parental or control shRNA cells, 0.0001 μM to 1 μM, two days
Description: The effect of depletion of GSPT1 on the anti-proliferative effect of compound Compound D and Compound E was also determined in human acute myelogenous leukemia cell lines AML and KG1. […]

[7] = test system: ATF3, DDIT3, cleaved Caspases, cleaved PARP; assay: UPR and apoptosis pathway components in KG1 cells; assay type: cell-based, human; details: KG1, 200 nM, 8 or 12 hours
Description: Cells were treated with DMSO alone or 200 nM Compound D. After 2, 4, or 6 hours, the expression levels of various cellular components along UPR or apoptosis pathways were measured. […] Reduction of BIP indicates UPR.
as §3, §4

[8] = test system: translational readthrough; assay: AML2 readthrough assay (Fluc/Nluc-G36A reporter), OCI-AML2; assay type: cell-based, human; details: 300 μg/ml G418 or 200 nM Compound D
Description: (§5) It is known that amino acid starvation causes GCN2 activation, which phosphorylates eIF2α. Because GSPT1 mediates normal translation termination, it is hypothesized that depletion of GSPT1 by Compound D may cause readthrough of stop codons. Whether the translational readthrough induced by Compound D contributes to the increased levels of p-eIF2α was investigated. OCI-AML2 cells stably expressing the Fluc/Nluc-G36A readthrough reporter were treated with 300 μg/ml G418 or 200 nM Compound D for 2, 4, 6, 8, 10, 12, or 16 hours. The levels of p-eIF2α were measured by immunoblot analysis. AML2 readthrough assay was conducted to measure the readthrough reporter.

[9] = test system: p-eIF2α; assay: p-eIF2α immunoblot, OCI-AML2; assay type: cell-based, human; details: 300 μg/ml G418 or 200 nM Compound D
Description: as §5

[10] = target: IKZF1 (Homo sapiens, UniProt Q13422+Q96SW2)
IKZF1, sequence (Q13422 whole entry): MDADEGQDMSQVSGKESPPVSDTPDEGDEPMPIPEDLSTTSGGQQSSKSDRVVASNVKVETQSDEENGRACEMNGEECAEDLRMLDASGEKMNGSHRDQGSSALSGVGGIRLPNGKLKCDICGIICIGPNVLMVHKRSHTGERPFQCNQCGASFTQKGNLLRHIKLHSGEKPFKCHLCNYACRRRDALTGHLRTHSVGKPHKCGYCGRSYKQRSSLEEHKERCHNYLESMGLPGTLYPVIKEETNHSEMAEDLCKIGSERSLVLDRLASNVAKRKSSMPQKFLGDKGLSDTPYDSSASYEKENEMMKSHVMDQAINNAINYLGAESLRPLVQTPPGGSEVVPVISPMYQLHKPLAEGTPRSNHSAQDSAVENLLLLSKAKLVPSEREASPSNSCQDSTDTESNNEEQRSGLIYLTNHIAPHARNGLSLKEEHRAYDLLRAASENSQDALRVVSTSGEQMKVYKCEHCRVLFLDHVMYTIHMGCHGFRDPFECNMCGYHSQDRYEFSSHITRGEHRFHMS
IKZF1, sequence (Q96SW2 whole entry): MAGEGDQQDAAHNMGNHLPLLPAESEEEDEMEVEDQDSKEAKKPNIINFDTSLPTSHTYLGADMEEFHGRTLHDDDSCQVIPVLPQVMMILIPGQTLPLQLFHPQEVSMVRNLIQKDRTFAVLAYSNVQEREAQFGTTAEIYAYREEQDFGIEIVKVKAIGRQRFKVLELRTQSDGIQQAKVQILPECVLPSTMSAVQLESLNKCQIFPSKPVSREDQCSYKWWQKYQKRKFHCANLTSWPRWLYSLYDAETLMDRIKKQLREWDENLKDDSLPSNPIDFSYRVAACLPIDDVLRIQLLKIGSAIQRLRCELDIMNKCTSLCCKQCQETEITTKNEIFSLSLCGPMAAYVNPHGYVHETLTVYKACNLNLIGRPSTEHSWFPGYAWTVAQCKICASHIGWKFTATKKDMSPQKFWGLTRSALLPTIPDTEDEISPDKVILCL
IKZF1, sequence (Q16531 whole entry partner): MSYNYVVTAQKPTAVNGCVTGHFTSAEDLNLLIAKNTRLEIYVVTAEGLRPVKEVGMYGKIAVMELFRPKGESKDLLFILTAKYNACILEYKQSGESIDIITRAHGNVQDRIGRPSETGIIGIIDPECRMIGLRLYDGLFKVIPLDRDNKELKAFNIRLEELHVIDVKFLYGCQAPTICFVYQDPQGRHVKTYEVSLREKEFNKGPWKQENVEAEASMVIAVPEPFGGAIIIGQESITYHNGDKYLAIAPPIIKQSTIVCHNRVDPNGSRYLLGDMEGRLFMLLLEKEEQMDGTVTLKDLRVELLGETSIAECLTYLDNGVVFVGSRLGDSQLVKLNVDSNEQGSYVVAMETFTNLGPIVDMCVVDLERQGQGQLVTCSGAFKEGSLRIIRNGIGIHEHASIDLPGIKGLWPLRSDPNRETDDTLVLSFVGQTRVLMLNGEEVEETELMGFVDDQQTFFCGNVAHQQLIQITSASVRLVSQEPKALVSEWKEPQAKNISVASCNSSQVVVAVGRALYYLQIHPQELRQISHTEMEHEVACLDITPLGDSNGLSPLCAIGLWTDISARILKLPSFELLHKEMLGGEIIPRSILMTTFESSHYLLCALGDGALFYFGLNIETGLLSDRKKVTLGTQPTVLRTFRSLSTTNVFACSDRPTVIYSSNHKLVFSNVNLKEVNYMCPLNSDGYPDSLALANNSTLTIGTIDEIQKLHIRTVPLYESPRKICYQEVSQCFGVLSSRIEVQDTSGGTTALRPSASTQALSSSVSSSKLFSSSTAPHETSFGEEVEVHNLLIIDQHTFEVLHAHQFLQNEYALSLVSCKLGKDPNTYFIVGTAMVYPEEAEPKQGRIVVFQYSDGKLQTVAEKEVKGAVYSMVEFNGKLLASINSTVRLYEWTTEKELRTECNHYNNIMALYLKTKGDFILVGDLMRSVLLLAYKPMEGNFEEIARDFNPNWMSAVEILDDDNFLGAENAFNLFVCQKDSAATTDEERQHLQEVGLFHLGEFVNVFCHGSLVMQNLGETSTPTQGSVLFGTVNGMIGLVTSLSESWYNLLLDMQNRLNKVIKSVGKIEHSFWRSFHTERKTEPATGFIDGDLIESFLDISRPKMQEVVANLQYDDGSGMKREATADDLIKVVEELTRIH

[11] = target: T1, GSPT1; assay: GSPT1 degradation in NB4 cell line; assay type: cell-based; parameters: endogenous in cells

T1 sequence (P15170 1-637 isoform P15170-3): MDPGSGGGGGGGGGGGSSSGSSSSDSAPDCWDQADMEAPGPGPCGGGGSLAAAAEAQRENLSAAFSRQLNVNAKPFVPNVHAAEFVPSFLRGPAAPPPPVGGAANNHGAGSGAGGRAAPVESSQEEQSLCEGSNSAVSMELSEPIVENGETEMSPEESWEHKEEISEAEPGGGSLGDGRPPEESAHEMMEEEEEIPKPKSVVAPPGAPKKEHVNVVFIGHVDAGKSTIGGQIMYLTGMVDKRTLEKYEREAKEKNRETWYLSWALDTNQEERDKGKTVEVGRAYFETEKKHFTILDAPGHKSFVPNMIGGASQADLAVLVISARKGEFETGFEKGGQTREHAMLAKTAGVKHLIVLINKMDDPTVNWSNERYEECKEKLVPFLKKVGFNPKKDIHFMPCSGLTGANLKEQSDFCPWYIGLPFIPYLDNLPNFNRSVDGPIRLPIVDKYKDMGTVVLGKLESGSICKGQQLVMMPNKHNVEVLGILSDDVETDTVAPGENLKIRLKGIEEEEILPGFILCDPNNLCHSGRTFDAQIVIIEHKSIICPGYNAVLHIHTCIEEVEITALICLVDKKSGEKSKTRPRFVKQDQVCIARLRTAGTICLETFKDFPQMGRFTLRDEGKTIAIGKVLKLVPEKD
T1 sequence (Q96SW2 whole entry): as the sequence (Q96SW2 whole entry) above
T1 sequence (Q16531 whole entry partner): as the sequence (Q16531 whole entry partner) above

O=C1CCC(N2Cc3cc(CNC(=O)C(F)(F)c4ccc(F)cc4)ccc3C2=O)C(=O)N1 (stereo not shown) [Compound E, N-((2-(2,6-dioxopiperidin-3-yl)-1-oxoisoindolin-5-yl)methyl)-2,2-difluoro-2-(4-fluorophenyl)acetamide]
expression of GSPT1 [1]: decreased the expression of GSPT1 | cell proliferation (CellTiter-Glo) [2]: exhibited anti-proliferative effect, particularly at high concentration | anti-proliferative effect ([3]; MOLM13 CRBN -/- cells): completely abolished | cell proliferation (CellTiter-Glo) ([3]; MOLM13 parental cells, 0.001 μM to 10 μM): inhibited cell proliferation | degradation of GSPT1 [4]: induced degradation | anti-proliferative effect ([5]; U937 CRBN -/- cells): completely abolished | cell proliferation (CellTiter-Glo) ([5]; U937 parental cells, 0.001 μM to 10 μM): inhibited cell proliferation | cell proliferation (CellTiter-Glo) [6]: exhibited anti-proliferative effect, particularly at high concentration | level of ATF3, DDIT3, cleaved Caspase-3, cleaved Caspase-8, and cleaved PARP [7]: increased the level

CN[C@@H]1[C@@H](O)[C@@H](O[C@@H]2[C@@H](O)[C@H](O[C@H]3O[C@H]([C@@H](C)O)[C@@H](O)[C@H](O)[C@H]3N)[C@@H](N)C[C@H]2N)OC[C@]1(C)O [Compound G418, G418, reference compound]
translational readthrough [8]: induced translational readthrough at a comparable level | levels of p-eIF2α [9]: little effect

Nc1cccc2c1C(=O)N(C1CCC(=O)NC1=O)C2=O (stereo not shown) [pomalidomide, reference compound]
effect on IKZF1 level [10]: induced degradation of IKZF1 at much lower concentrations than Compound D | effect on GSPT1 level [11]: no significant effect
